From patent US9718825B2, “N-(4-(azaindazol-6-yl)-phenyl)-sulfonamides and their use as pharmaceuticals” (priority 2013, dated 2017)

Columns and labels:
[1] = target: recombinant human SGK-1 enzyme (Homo sapiens, UniProt O00141); test: Enzymatic activity assay: SGK-1 substrate peptide phosphorylation (Caliper lab-chip mobility shift); assay type: biochemical; conditions: peptide substrate 1 μM, ATP 10 μM, 60 min at 37° C., read-out: IC50 values for inhibition of SGK-1 enzymatic activity
[2] = tested on: SGK-1 dependent phosphorylation of GSK3beta in U2OS cells; test: SGK-1 dependent phosphorylation of GSK3beta in U2OS cells overexpressing recombinant SGK-1 and GSK3beta; assay type: cell-based, human; conditions: U2OS cells, 6 h incubation, ratio of phosphorylated GSK3beta to total GSK3beta; read-out: IC50 values for inhibition of SGK-1 dependent phosphorylation of GSK3beta in U2OS cells

Chain of recombinant human SGK-1 enzyme (O00141 whole entry, looked up): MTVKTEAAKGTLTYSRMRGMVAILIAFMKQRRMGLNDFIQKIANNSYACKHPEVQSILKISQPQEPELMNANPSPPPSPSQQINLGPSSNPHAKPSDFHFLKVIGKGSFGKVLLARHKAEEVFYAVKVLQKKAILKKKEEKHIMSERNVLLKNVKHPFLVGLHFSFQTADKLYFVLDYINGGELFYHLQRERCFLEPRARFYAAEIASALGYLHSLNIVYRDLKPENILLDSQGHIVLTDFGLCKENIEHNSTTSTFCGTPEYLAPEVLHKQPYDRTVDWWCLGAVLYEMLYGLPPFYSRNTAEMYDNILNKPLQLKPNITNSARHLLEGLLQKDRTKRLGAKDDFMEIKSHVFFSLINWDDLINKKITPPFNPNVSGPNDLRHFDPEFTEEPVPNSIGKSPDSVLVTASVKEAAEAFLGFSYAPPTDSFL

SMILES | IC50 [1] | IC50 [2]
CC(C)COc1nc(-c2ccc(NS(=O)(=O)c3cccc(F)c3Cl)cc2)nc2[nH]nc(N)c12 [Example 324] | 0.33 µM | 0.33 µM
CC(C)COc1nc(-c2ccc(NS(=O)(=O)c3ccccc3F)cc2)nc2[nH]nc(N)c12 [Example 331] | 0.29 µM | 0.24 µM
COc1ccc(Cl)c(S(=O)(=O)Nc2ccc(-c3nc(OCCCN)c4c(C)n[nH]c4n3)cc2)c1 [Example 212] | < 0.0015 µM | 0.11 µM
Cc1nc(-c2ccc(NS(=O)(=O)c3cc(F)cc(F)c3Cl)cc2)nc2[nH]nc(N)c12 [Example 479] | 0.016 µM | 0.28 µM
COc1nc(-c2ccc(NS(=O)(=O)c3cc(Cl)ccc3C#N)cc2)nc2[nH]ncc12 [Example 138] | 0.044 µM | 3.5 µM
CC(C)(O)CCCOc1nc(-c2ccc(NS(=O)(=O)c3cc(Cl)ccc3F)cc2)nc2[nH]ncc12 [Example 86] | 0.011 µM | 1.8 µM
COc1ccc(Cl)c(S(=O)(=O)Nc2ccc(-c3nc(OCC(C)C)c4c(N)n[nH]c4n3)cc2)c1 [Example 332] | 0.027 µM | 0.19 µM
Cc1ccc(C#N)c(S(=O)(=O)Nc2ccc(-c3nc(NC4CCC(O)CC4)c4c(C)n[nH]c4n3)cc2)c1 (centres unmarked) [Example 98] | 0.0017 µM | 1.7 µM
COc1ccc(F)c(S(=O)(=O)Nc2ccc(-c3nc(OCCCN)c4cn[nH]c4n3)cc2)c1 [Example 219] | < 0.0015 µM | 0.23 µM
CC(C)COc1nc(-c2ccc(NS(=O)(=O)c3ccccc3Cl)cc2)nc2[nH]nc(N)c12 [Example 316] | 0.48 µM | 0.27 µM
Cc1ccc(C#N)c(S(=O)(=O)Nc2ccc(-c3nc(OCC(C)C)c4c(N)n[nH]c4n3)cc2)c1 [Example 333] | 0.014 µM | 1.3 µM
Cc1n[nH]c2nc(-c3ccc(NS(=O)(=O)c4ccccc4F)cc3)nc(OC3CCNCC3F)c12 (centres unmarked) [Example 297] | 0.0018 µM | 0.08 µM
O=S(=O)(Nc1ccc(-c2nc(N3CCC(O)CC3)c3cn[nH]c3n2)cc1)c1cc(Cl)ccc1Cl [Example 74] | 0.0055 µM | 1.2 µM
Cc1n[nH]c2nc(-c3ccc(NS(=O)(=O)c4cc(Cl)ccc4Cl)cc3)nc(OCC3CNCCO3)c12 (centres unmarked) [Example 313] | 0.002 µM | 0.047 µM
COc1nc(-c2ccc(NS(=O)(=O)c3cc(C)ccc3C#N)cc2)nc2[nH]ncc12 [Example 135] | 0.012 µM | 1.9 µM
O=S(=O)(Nc1ccc(-c2nc(N3CC(CO)C3)c3cn[nH]c3n2)cc1F)c1cc(Cl)ccc1F [Example 441] | 0.021 µM | 11 µM
Cc1ccc(F)c(S(=O)(=O)Nc2ccc(-c3nc(C)c4c(N)n[nH]c4n3)cc2)c1 [Example 472] | 0.0015 µM | 0.33 µM
Cc1ccc(F)c(S(=O)(=O)Nc2ccc(-c3ncc4c(C)n[nH]c4n3)cc2)c1 [Example 95] | < 0.0015 µM | 4.6 µM
Cc1n[nH]c2nc(-c3ccc(NS(=O)(=O)c4ccccc4F)cc3)nc(OCCCN)c12 [Example 211] | 0.0023 µM | 0.08 µM
O=S(=O)(Nc1ccc(-c2nc(OCCCCO)c3cn[nH]c3n2)cc1)c1cc(Cl)ccc1F [Example 35] | 0.0032 µM | 5.7 µM
Nc1n[nH]c2nc(-c3ccc(NS(=O)(=O)c4cc(Cl)ccc4Cl)cc3)ncc12 [Example 452] | 0.002 µM | 0.98 µM

SMILES | IC50 [1] | IC50 [2]
O=S(=O)(Nc1ccc(-c2nc(N3CCC(O)C3)c3cn[nH]c3n2)cc1F)c1cc(Cl)ccc1Cl (centres unmarked) [Example 438] | 0.085 µM | 7.8 µM
COc1ccc(Cl)c(S(=O)(=O)Nc2ccc(-c3nc(OCC4CNCCO4)c4c(C)n[nH]c4n3)cc2)c1 (centres unmarked) [Example 290] | 0.0033 µM | 0.015 µM
Cc1n[nH]c2nc(-c3ccc(NS(=O)(=O)c4cc(Cl)ccc4C#N)cc3)nc(OCCCN)c12 [Example 220] | < 0.0015 µM | 0.17 µM
COCCc1nc(-c2ccc(NS(=O)(=O)c3cc(Cl)sc3Cl)cc2)nc2[nH]nc(N)c12 [Example 509] | 0.31 µM | 2.5 µM
COCCc1nc(-c2ccc(NS(=O)(=O)c3cc(Cl)c(F)cc3F)cc2)nc2[nH]nc(N)c12 [Example 501] | 0.04 µM | 0.45 µM
O=S(=O)(Nc1ccc(-c2nc(O[C@@H]3CCC[C@H]3O)c3cn[nH]c3n2)cc1)c1cc(Cl)ccc1F [Example 87] | 0.0068 µM | 4.1 µM
COc1ccc(Cl)c(S(=O)(=O)Nc2ccc(-c3nc(OC4CCNCC4F)c4c(C)n[nH]c4n3)cc2)c1 (centres unmarked) [Example 304] | 0.0023 µM | 0.13 µM
O=S(=O)(Nc1ccc(-c2nc(OCC3CNCCO3)c3cn[nH]c3n2)cc1)c1cc(Cl)ccc1Cl (centres unmarked) [Example 312] | 0.006 µM | 0.13 µM
Nc1n[nH]c2nc(-c3ccc(NS(=O)(=O)c4cc(F)c(F)cc4Cl)cc3)ncc12 [Example 514] | 0.25 µM | 0.27 µM
Cc1ccc(C#N)c(S(=O)(=O)Nc2ccc(-c3nc(C4CCC(O)C4)c4c(C)n[nH]c4n3)cc2)c1 (centres unmarked) [Example 97] | 0.002 µM | 1.6 µM
Cc1n[nH]c2nc(-c3ccc(NS(=O)(=O)c4cc(Cl)ccc4Cl)cc3)nc(OCCCN)c12 [Example 210] | < 0.0015 µM | 0.098 µM
COc1ccc(F)c(S(=O)(=O)Nc2ccc(-c3nc(C4CC4)c4cn[nH]c4n3)cc2)c1 [Example 147] | 0.0015 µM | 0.059 µM
O=S(=O)(Nc1ccc(-c2nc(OC3CCC(O)C3)c3cn[nH]c3n2)cc1)c1cc(Cl)ccc1F (centres unmarked) [Example 75] | 0.0048 µM | 0.25 µM
O=S(=O)(Nc1ccc(-c2nc(O[C@H]3CCCC(O)C3)c3cn[nH]c3n2)cc1)c1cc(Cl)ccc1Cl (some centres unmarked) [Example 85] | 0.0041 µM | 1.5 µM
Cc1ccc(C#N)c(S(=O)(=O)Nc2ccc(-c3nc(OC4CCN(C)CC4)c4cn[nH]c4n3)cc2)c1 [Example 314] | 0.0045 µM | 0.25 µM
COCCc1nc(-c2ccc(NS(=O)(=O)c3cc(OC)ccc3Cl)cc2)nc2[nH]nc(N)c12 [Example 502] | 0.018 µM | 0.42 µM
Cc1n[nH]c2nc(-c3ccc(NS(=O)(=O)c4ccccc4F)cc3)nc(OC3CCCNC3)c12 (centres unmarked) [Example 323] | 0.012 µM | 0.1 µM
Cc1ccc(F)c(S(=O)(=O)Nc2ccc(-c3ncc4c(N)n[nH]c4n3)cc2)c1 [Example 455] | < 0.0015 µM | 0.39 µM
Cc1n[nH]c2nc(-c3ccc(NS(=O)(=O)c4cc(F)ccc4F)cc3)nc(OC3CCC(O)CC3)c12 (centres unmarked) [Example 217] | 0.0091 µM | 0.19 µM
Cc1ccc(F)c(S(=O)(=O)Nc2ccc(-c3nc(OC4C[C@@H](O)C[C@@H](O)C4)c4cn[nH]c4n3)cc2)c1 (some centres unmarked) [Example 119] | < 0.0015 µM | 11 µM
Cc1n[nH]c2nc(-c3ccc(NS(=O)(=O)c4cc(Cl)ccc4F)cc3)ncc12 [Example 10] | < 0.0012 µM | 0.43 µM

SMILES | IC50 [1] | IC50 [2]
Cc1n[nH]c2nc(-c3ccc(NS(=O)(=O)c4ccccc4F)cc3)nc(OCC3CNCCO3)c12 (centres unmarked) [Example 289] | 0.023 µM | 0.2 µM
Cc1ccc(C#N)c(S(=O)(=O)Nc2ccc(-c3ncc4c(C)n[nH]c4n3)cc2)c1 [Example 93] | 2.4 µM | 3.3 µM
CC(C)COc1nc(-c2ccc(NS(=O)(=O)c3cc(Cl)sc3Cl)cc2)nc2[nH]nc(N)c12 [Example 330] | 0.1 µM | 0.23 µM
Cc1ccc(C#N)c(S(=O)(=O)Nc2ccc(-c3nc(OC4CCNCC4F)c4c(C)n[nH]c4n3)cc2)c1 (centres unmarked) [Example 300] | 0.0011 µM | 0.092 µM
O=S(=O)(Nc1ccc(-c2nc(C3CC3)c3cn[nH]c3n2)cc1)c1cc(Cl)ccc1F [Example 141] | 0.0065 µM | 0.15 µM
NCCCOc1nc(-c2ccc(NS(=O)(=O)c3cc(Cl)ccc3Cl)cc2)nc2[nH]ncc12 [Example 63] | < 0.0012 µM | 0.28 µM
COc1ccc(F)c(S(=O)(=O)Nc2ccc(-c3nc(OC4CNC4)c4cn[nH]c4n3)cc2)c1 [Example 192] | 0.0028 µM | 0.14 µM
O=S(=O)(Nc1ccc(-c2nc(OCC3CNCCO3)c3cn[nH]c3n2)cc1)c1cc(Cl)ccc1F (centres unmarked) [Example 305] | 0.01 µM | 0.089 µM
Cc1n[nH]c2nc(-c3ccc(NS(=O)(=O)c4cc(Cl)ccc4Cl)cc3)nc(OC3CCNCC3F)c12 (centres unmarked) [Example 303] | 0.0022 µM | 0.057 µM
Cc1nc(-c2ccc(NS(=O)(=O)C3=CSCC=C3Br)cc2)nc2[nH]nc(N)c12 [Example 173] | 0.33 µM | 0.6 µM
Cc1n[nH]c2nc(-c3ccc(NS(=O)(=O)c4cc(Cl)ccc4C#N)cc3)nc(OC3CCNCC3F)c12 (centres unmarked) [Example 299] | 0.0033 µM | 0.41 µM
COc1ccc(F)c(S(=O)(=O)Nc2ccc(-c3nc(OCC(C)C)c4c(N)n[nH]c4n3)cc2)c1 [Example 326] | 0.0091 µM | 0.16 µM
Nc1n[nH]c2cc(-c3ccc(NS(=O)(=O)c4cc(Cl)ccc4F)cc3)ncc12 [Example 559] | 0.019 µM | 0.39 µM
Nc1n[nH]c2nc(-c3ccc(NS(=O)(=O)c4cccc(Cl)c4F)cc3)ncc12 [Example 515] | 0.35 µM | 0.53 µM
COc1ccc(F)c(S(=O)(=O)Nc2ccc(-c3nc(OCC4CNCCO4)c4c(C)n[nH]c4n3)cc2)c1 (centres unmarked) [Example 295] | 0.0026 µM | 0.025 µM
Cc1ccc(F)c(S(=O)(=O)Nc2ccc(-c3nc(OCC4O[C@H](O)[C@H](O)[C@@H](O)[C@@H]4O)c4cn[nH]c4n3)cc2)c1 (some centres unmarked) [Example 123] | 0.0099 µM | 30 µM
COc1ccc(F)c(S(=O)(=O)Nc2ccc(-c3nc(OCC4CNCCO4)c4cn[nH]c4n3)cc2)c1 (centres unmarked) [Example 309] | 0.0028 µM | 0.16 µM
Cc1n[nH]c2nc(-c3ccc(NS(=O)(=O)c4cc(Cl)ccc4Cl)c(F)c3)ncc12 [Example 434] | 0.0018 µM | 3.5 µM
O=S(=O)(Nc1ccc(-c2nc(N3CCNCC3)c3cn[nH]c3n2)cc1)c1cc(Cl)ccc1F [Example 16] | < 0.0012 µM | 0.95 µM
